Values joined by “and” are separate entries in the source; they are usually repeats but may differ in a detail not shown here. Identical values can stand only once.
Legend:
[1] = system: Heliothis virescens caterpillars; experiment: Heliothis virescens test (soybean shoots dipped); type: in vivo; details: 500 ppm active compound
Protocol: (§1) To produce a suitable preparation of active compound, 1 part by weight of active compound is mixed with the stated amounts of solvent and emulsifier, and the concentrate is diluted with emulsifier-containing water to the desired concentration.
Soybean shoots (Glycine max) are treated by being dipped into the preparation of active compound of the desired concentration and are populated with Heliothis virescens caterpillars while the leaves are still moist.
(§2) After the desired period of time, the kill in % is determined. 100% means that all caterpillars have been killed; 0% means that none of the caterpillars have been killed.

[2] = logP determination by HPLC (reversed-phase C18), EEC directive 79/831 Annex V.A8; type: physicochemical; details: pH 2.3, 0.1% aqueous phosphoric acid/acetonitrile gradient, 43° C.; for chromatographic logP: read-out: log P (pH 2.3)
Protocol: The stated logP values were determined in accordance with EEC directive 79/831 Annex V.A8 by HPLC (High Performance Liquid Chromatography) using a reversed-phase column (C 18). Temperature: 43° C.
In the acidic range, the determination was carried out at pH 2.3 using the mobile phases 0.1% aqueous phosphoric acid and acetonitrile; linear gradient from 10% acetonitrile to 90% acetonitrile.
Calibration was carried out using unbranched alkan-2-ones (having 3 to 16 carbon atoms) with known logP values (determination of the logP values by the retention times using linear interpolation between two successive alkanones.

[3] = system: caterpillars of the army worm (Spodoptera frugiperda); experiment: Spodoptera frugiperda test (cabbage leaves dipped); type: in vivo; details: 168 h, 500 ppm active compound, after 7 d, read-out: Kill rate in % after 7 d
Protocol: Spodoptera frugiperda Test
as §1
Cabbage leaves (Brassica oleracea) are treated by being dipped into the preparation of active compound of the desired concentration and are populated with caterpillars of the army worm (Spodoptera frugiperda) while the leaves are still moist.
as §2

[4] = system: caterpillars of the diamond back moth (Plutella xylostella, sensitive strain); experiment: Plutella test, sensitive strain (cabbage leaves dipped); type: in vivo; details: 500 ppm active compound
Protocol: Plutella Test, Sensitive Strain
as §1
Cabbage leaves (Brassica oleracea) are treated by being dipped into the preparation of active compound of the desired concentration and are populated with caterpillars of the diamond back moth (Plutella xylostella, sensitive strain) while the leaves are still moist.
as §2

[5] = system: caterpillars of the army worm (Spodoptera exigua); experiment: Spodoptera exigua test (cabbage leaves dipped); type: in vivo; details: 500 ppm active compound
Protocol: as §1
Cabbage leaves (Brassica oleracea) are treated by being dipped into the preparation of active compound of the desired concentration and are populated with caterpillars of the army worm (Spodoptera exigua) while the leaves are still moist.
as §2

[6] = system: larvae of the mustard beetle (Phaedon cochleariae); experiment: Phaedon larvae test (cabbage leaves dipped); type: in vivo; details: 500 ppm active compound
Protocol: as §1
Cabbage leaves (Brassica oleracea) are treated by being dipped into the preparation of active compound of the desired concentration and are populated with larvae of the mustard beetle (Phaedon cochleariae) while the leaves are still moist.
After the desired period of time, the kill in % is determined. 100% means that all beetle larvae have been killed; 0% means that none of the beetle larvae have been killed.

[7] = system: caterpillars of the diamond back moth (Plutella xylostella, resistant strain); experiment: Plutella test, resistant strain (cabbage leaves dipped); type: in vivo; details: 500 ppm active compound
Protocol: Plutella Test, Resistant Strain
as §1
Cabbage leaves (Brassica oleracea) are treated by being dipped into the preparation of active compound of the desired concentration and are populated with caterpillars of the diamond back moth (Plutella xylostella, resistant strain) while the leaves are still moist.
as §2

Cc1cc(C(F)(C(F)(F)F)C(F)(F)F)ccc1NC(=O)c1cccc(I)c1C(=O)NC(C)CSC[Si](C)(C)C (stereo not shown) [drawing 34]
Kill rate in % after 7 d [1]: 100%

CC(N)CSC[Si](C)(C)C (stereo not shown) [1-{[(trimethylsilyl)methyl]sulphanyl}-2-propanamide]
chromatographic logP [2]: 1.28

Cc1cc(-c2nnn(C(C)(C)C)n2)ccc1NC(=O)c1cccc(I)c1C(=O)NC(C)CSC[Si](C)(C)C (stereo not shown)
pest or weed control at 500 ppm [3]: 100%

Cc1cc(C(F)(C(F)(F)F)C(F)(F)F)ccc1NC(=O)c1cccc(Cl)c1C(=O)NC(C)CSC[Si](C)(C)C (stereo not shown) [drawing 32]
Kill rate in % after 7 d [1]: 100%

Cc1cc(C(F)(C(F)(F)F)C(F)(F)F)ccc1NC(=O)c1c(I)cccc1C(=O)NC(C)CSC[Si](C)(C)C (stereo not shown) [drawing 42]
Kill rate in % after 7 d [4]: 100%

Cc1cc(C(F)(C(F)(F)F)C(F)(F)F)ccc1NC(=O)c1cccc(I)c1C(=O)NC(C)CSC[Si](C)(C)C (stereo not shown) [drawing 49]
Kill rate in % after 7 d [5]: 100%

Cc1cc(Oc2ccc(C(F)(F)F)cc2)ccc1NC(=O)c1cccc(Cl)c1C(=O)NC(C)CSC[Si](C)(C)C (stereo not shown) [drawing 39]
Kill rate in % after 7 d [6]: 100%

Cc1cc(C(F)(C(F)(F)F)C(F)(F)F)ccc1NC(=O)c1cccc(Cl)c1C(=O)NC[Si](C)(C)C
pest or weed control at 500 ppm [3]: 100%

Cc1cc(Oc2ccc(C(F)(F)F)cc2)ccc1NC(=O)c1c(I)cccc1C(=O)NC(C)CSC[Si](C)(C)C (stereo not shown)
pest or weed control at 500 ppm [3]: 100%

Cc1cc(C(F)(C(F)(F)F)C(F)(F)F)ccc1NC(=O)c1cccc(Cl)c1C(=O)NC(C)CSC[Si](C)(C)C (single isomer, unassigned) [Example 1 Isomer 2, 3-Chloro-N^1-{2-methyl-4-[1,2,2,2-tetrafluoro-1-(trifluoromethyl)ethyl]phenyl}-N^2-(1-methyl-2-{[(trimethylsilyl)methyl]sulphanyl}ethyl)phthalamide]
chromatographic logP [2]: 5.56

Cc1cc(C(F)(C(F)(F)F)C(F)(F)F)ccc1NC(=O)c1cccc(I)c1C(=O)NC(C)CSC[Si](C)(C)C (stereo not shown) [drawing 37]
Kill rate in % after 7 d [6]: 100%

Cc1cc(C(F)(C(F)(F)F)C(F)(F)F)ccc1NC(=O)c1cccc(Cl)c1C(=O)NC(C)CSC[Si](C)(C)C (stereo not shown) [drawing 41]
Kill rate in % after 7 d [4]: 100%

Cc1cc(Oc2ccc(C(F)(F)F)cc2)ccc1NC(=O)c1cccc(Cl)c1C(=O)NC(C)CSC[Si](C)(C)C (stereo not shown) [drawing 58]
pest or weed control at 500 ppm [3]: 100%

Cc1cc(C(F)(C(F)(F)F)C(F)(F)F)ccc1NC(=O)c1c(Cl)cccc1C(=O)NCC(C)(C)O[Si](C)(C)C (single isomer, unassigned) [Example 3 Isomer 2, 3-Chloro-N^2-{2-methyl-4-[1,2,2,2-tetrafluoro-1-(trifluoromethyl)ethyl]phenyl}-N^1-{2-methyl-2-[(trimethylsilyl)oxy]propyl}phthalamide]
chromatographic logP [2]: 3.19

Cc1cc(C(F)(C(F)(F)F)C(F)(F)F)ccc1NC(=O)c1cccc(Cl)c1C(=O)NC(C)CSC[Si](C)(C)C (stereo not shown) [drawing 36]
Kill rate in % after 7 d [6]: 100%

Cc1cc(Oc2ccc(C(F)(F)F)cc2)ccc1NC(=O)c1c(Cl)cccc1C(=O)NC(C)CSC[Si](C)(C)C (stereo not shown)
pest or weed control at 500 ppm [3]: 100%

Cc1cc(C(F)(C(F)(F)F)C(F)(F)F)ccc1NC(=O)c1c(Cl)cccc1C(=O)NC(C)CSC[Si](C)(C)C (single isomer, unassigned) [Example 1 Isomer 1, 3-Chloro-N^2-{2-methyl-4-[1,2,2,2-tetrafluoro-1-(trifluoromethyl)ethyl]phenyl}-N^1-(1-methyl-2-{[(trimethylsilyl)methyl]sulphanyl}ethyl)phthalamide]
chromatographic logP [2]: 5.38

Cc1cc(C(F)(C(F)(F)F)C(F)(F)F)ccc1NC(=O)c1c(Cl)cccc1C(=O)NC(C)CSC[Si](C)(C)C (stereo not shown) [drawing 44]
Kill rate in % after 7 d [7]: 100%

Cc1cc(C(F)(C(F)(F)F)C(F)(F)F)ccc1NC(=O)c1c(I)cccc1C(=O)NC(C)CSC[Si](C)(C)C (stereo not shown) [drawing 33]
Kill rate in % after 7 d [1]: 100%

Cc1cc(C(F)(C(F)(F)F)C(F)(F)F)ccc1NC(=O)c1c(Cl)cccc1C(=O)NC(C)CSC[Si](C)(C)C (stereo not shown) [drawing 31]
Kill rate in % after 7 d [1]: 100%

Cc1cc(C(F)(C(F)(F)F)C(F)(F)F)ccc1NC(=O)c1cccc(Cl)c1C(=O)NCC(C)(C)O[Si](C)(C)C (single isomer, unassigned) [Example 3 Isomer 1, 3-Chloro-N^1-{2-methyl-4-[1,2,2,2-tetrafluoro-1-(trifluoromethyl)ethyl]phenyl}-N^2-{2-methyl-2-[(trimethylsilyl)oxy]propyl}phthalamide]
chromatographic logP [2]: 3.11

Cc1cc(C(F)(C(F)(F)F)C(F)(F)F)ccc1NC(=O)c1c(I)cccc1C(=O)NC(C)CSC[Si](C)(C)C (stereo not shown) [drawing 55]
pest or weed control at 500 ppm [3]: 100%

Cc1cc(C(F)(C(F)(F)F)C(F)(F)F)ccc1NC(=O)c1c(I)cccc1C(=O)NC(C)CSC[Si](C)(C)C (stereo not shown) [drawing 48]
Kill rate in % after 7 d [5]: 100%

3-Chloro-N^1-[2-methyl-4-(1,1,2,2-tetrafluoroethoxy)phenyl]-N^2-[(trimethylsilyl)methyl]phthalamide (Isomer 1) and 3-chloro-N^2-[2-methyl-4-(1,1,2,2-tetrafluoroethoxy)phenyl]-N^1-[(trimethylsilyl)methyl]phthalamide (Isomer 2) [Example 2 Isomer Mixture]
log P (pH 2.3) [2]: 3.59 and 3.69

Cc1cc(C(F)(C(F)(F)F)C(F)(F)F)ccc1NC(=O)c1cccc(I)c1C(=O)NC(C)CSC[Si](C)(C)C (stereo not shown) [drawing 56]
pest or weed control at 500 ppm [3]: 100%

Cc1cc(C(F)(C(F)(F)F)C(F)(F)F)ccc1NC(=O)c1cccc(I)c1C(=O)NC(C)CSC[Si](C)(C)C (stereo not shown) [drawing 43]
Kill rate in % after 7 d [4]: 100%

Cc1cc(C(F)(C(F)(F)F)C(F)(F)F)ccc1NC(=O)c1c(Cl)cccc1C(=O)NC(C)CSC[Si](C)(C)C (stereo not shown) [drawing 46]
Kill rate in % after 7 d [5]: 100%

Cc1cc(C(F)(C(F)(F)F)C(F)(F)F)ccc1NC(=O)c1cccc(Cl)c1C(=O)NC(C)CSC[Si](C)(C)C (stereo not shown) [drawing 47]
Kill rate in % after 7 d [5]: 100%

Cc1cc(C(F)(C(F)(F)F)C(F)(F)F)ccc1NC(=O)c1cccc(Cl)c1C(=O)NC(C)CSC[Si](C)(C)C (stereo not shown) [drawing 45]
Kill rate in % after 7 d [7]: 100%

Cc1cc(C(F)(C(F)(F)F)C(F)(F)F)ccc1NC(=O)c1c(Cl)cccc1C(=O)NC(C)CSC[Si](C)(C)C (stereo not shown) [drawing 35]
Kill rate in % after 7 d [6]: 90%

Cc1cc(C(F)(C(F)(F)F)C(F)(F)F)ccc1NC(=O)c1c(Cl)cccc1C(=O)NCC(C)(C)O[Si](C)(C)C
pest or weed control at 500 ppm [3]: 100%

Cc1cc(Oc2ccc(C(F)(F)F)cc2)ccc1NC(=O)c1cccc(I)c1C(=O)NC(C)CSC[Si](C)(C)C (stereo not shown) [drawing 38]
Kill rate in % after 7 d [6]: 100%

Cc1cc(C(F)(C(F)(F)F)C(F)(F)F)ccc1NC(=O)c1c(Cl)cccc1C(=O)NC(C)CSC[Si](C)(C)C (stereo not shown) [drawing 52]
pest or weed control at 500 ppm [3]: 100%

Cc1cc(C(F)(C(F)(F)F)C(F)(F)F)ccc1NC(=O)c1c(Cl)cccc1C(=O)NC(C)CSC[Si](C)(C)C (stereo not shown) [drawing 40]
Kill rate in % after 7 d [4]: 100%

Cc1cc(C(F)(C(F)(F)F)C(F)(F)F)ccc1NC(=O)c1cccc(Cl)c1C(=O)NC(C)CSC[Si](C)(C)C (stereo not shown) [drawing 54]
pest or weed control at 500 ppm [3]: 100%

Cc1cc(Oc2ccc(C(F)(F)F)cc2)ccc1NC(=O)c1cccc(I)c1C(=O)NC(C)CSC[Si](C)(C)C (stereo not shown) [drawing 57]
pest or weed control at 500 ppm [3]: 100%

Cc1cc(C(F)(C(F)(F)F)C(F)(F)F)ccc1NC(=O)c1cccc(Cl)c1C(=O)NCC(C)(C)O[Si](C)(C)C
pest or weed control at 500 ppm [3]: 100%

Source: patent publication US6835847B2, “Phthalic acid diamide, method for the production thereof and the use of the same as a pesticide” (Bayer CropScience AG, priority 2001, dated 2004)
